These are literature values, as cited in patent publication US20120270995A1, “AQUEOUS FORMULATIONS INCLUDING DIOXOLANES AS COUPLING AGENTS” (RHODIA POLIAMIDA E ESPECIALIDADES LTDA, priority 2009, published 2012).

Like-named read-outs stand apart in the source and are kept apart here. Some results are limits rather than exact numbers.

For data set [1] the following is noted: in vivo.
The conditions of data set [2]: in vivo. This is another data set of the same source.
Assay in data set [3]: not given
The source holds these as a separate data set.

For data set [4] the following is noted: in vivo. This is another data set of the same source.
For data set [5] the following is noted: CMR = carcinogenic/mutagenic/reproductively toxic.

In the case of `CCCCOCCOC(C)=O` [Butylglycol acetate], in data set [1], the Eye irritation result is on record as “weak”. Also, the Vapour point (20° C.) is on record as 0.4 mmHg. Moreover, in data set [2], the Skin irritation result was “weak”. Further, the Acute oral toxicity in data set [3] is recorded as 2360 mg/kg. Also, the Aquatic toxicity in data set [4] is 103.17 mg/L.

Turning to `CCCCOCCO` [Butylglycol], the Vapour point (20° C.) is 0.8 mmHg.

For `CCOCCOCCO` [Ethyldiglycol], the Eye irritation entry in data set [1] is listed as “severe”. The Vapour point (25° C.) is given as 0.1 mmHg. Further, the Skin irritation result in data set [2] is “severe”. In data set [3], the Acute oral toxicity is reported as 5500 mg/kg. Moreover, in data set [4], the Aquatic toxicity is 13 400 mg/l.

As to `CCOCCOC(C)=O` [Ethylglycol acetate], in data set [1], the Eye irritation result is listed as “severe”. Also, the Vapour point (20° C.) was 2.0 mmHg. The CMR entry in data set [5] is on record as “cat. 2”. The Skin irritation entry in data set [2] was “severe”. Moreover, the Acute oral toxicity in data set [3] is on record as 2900 mg/kg. Besides, the Aquatic toxicity in data set [4] is 244.66 mg/L.

Take `CCOCCO` [Ethylglycol]: the Eye irritation result in data set [1] was “weak”. The Vapour point (25° C.) is 5.3 mmHg. Besides, in data set [5], the CMR entry is “cat. 2”. Further, the Skin irritation result in data set [2] is on record as “moderate”. Moreover, the Acute oral toxicity in data set [3] is reported as 3000 mg/kg. Moreover, in data set [4], the Aquatic toxicity was 5000 mg/L.

Take `CC1(C)OCC(CO)O1` (stereo not drawn) [Solketal, 2,2-Dimethyl-1,3-dioxolane-4-methanol]: in data set [1], the Eye irritation entry is on record as “moderate”. Further, the Vapour point (37.8° C.) is listed as 52.0 mmHg. Besides, the Skin irritation result in data set [2] is on record as “moderate”. Moreover, the Acute oral toxicity in data set [3] is 7000 mg/kg. The Aquatic toxicity in data set [4] is more than 1000 mg/L.

With Methylglycol, the Eye irritation result in data set [1] is given as “severe”. For the same molecule, the Vapour point (20° C.) is reported as 6.2 mmHg. Also, in data set [2], the Skin irritation result is given as “weak”. Moreover, the Acute oral toxicity in data set [3] was 18 000 mg/kg. For the same molecule, the Aquatic toxicity in data set [4] was 18 000 mg/l.
